The values below come from patent publication US20250361230A1, “LATS Inhibitors and Uses Thereof” (The USA, as Represented by the Secretary, Dept. of Heath …, priority 2022, published 2025).

What all share (type): biochemical
Test [1] has as its target T1, LATS1 (Homo sapiens, UniProt O95835).
T1 sequence (O95835 1-1130): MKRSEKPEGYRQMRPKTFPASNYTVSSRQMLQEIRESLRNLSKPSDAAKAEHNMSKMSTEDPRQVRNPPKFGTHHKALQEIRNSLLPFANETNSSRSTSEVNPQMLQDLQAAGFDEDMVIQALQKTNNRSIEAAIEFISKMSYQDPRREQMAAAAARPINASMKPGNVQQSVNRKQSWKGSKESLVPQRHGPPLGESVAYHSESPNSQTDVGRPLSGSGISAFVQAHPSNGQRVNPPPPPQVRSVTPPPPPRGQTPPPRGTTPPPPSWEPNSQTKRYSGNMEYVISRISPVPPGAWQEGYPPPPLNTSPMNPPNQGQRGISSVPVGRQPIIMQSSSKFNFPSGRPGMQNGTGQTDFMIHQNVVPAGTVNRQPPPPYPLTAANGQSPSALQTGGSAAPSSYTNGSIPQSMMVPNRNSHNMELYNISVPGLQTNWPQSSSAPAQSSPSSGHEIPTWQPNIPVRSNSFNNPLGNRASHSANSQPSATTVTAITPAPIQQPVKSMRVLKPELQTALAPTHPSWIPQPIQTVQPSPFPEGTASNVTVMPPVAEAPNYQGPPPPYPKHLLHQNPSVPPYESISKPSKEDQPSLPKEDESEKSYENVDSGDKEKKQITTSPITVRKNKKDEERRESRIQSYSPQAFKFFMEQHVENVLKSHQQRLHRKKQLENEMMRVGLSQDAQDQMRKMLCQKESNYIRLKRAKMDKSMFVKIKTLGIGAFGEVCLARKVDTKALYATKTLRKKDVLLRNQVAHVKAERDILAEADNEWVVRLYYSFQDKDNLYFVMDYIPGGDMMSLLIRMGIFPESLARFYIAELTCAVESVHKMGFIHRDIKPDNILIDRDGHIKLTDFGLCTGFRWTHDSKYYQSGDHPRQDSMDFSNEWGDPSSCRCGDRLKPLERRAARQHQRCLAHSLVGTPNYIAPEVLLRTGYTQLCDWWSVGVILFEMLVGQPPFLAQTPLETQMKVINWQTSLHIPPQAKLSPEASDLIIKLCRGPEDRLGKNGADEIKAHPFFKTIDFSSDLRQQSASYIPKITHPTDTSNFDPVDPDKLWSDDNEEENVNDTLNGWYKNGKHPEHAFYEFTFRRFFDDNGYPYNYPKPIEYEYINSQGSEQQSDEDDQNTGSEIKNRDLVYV
In words: RBC HotSpot kinase assay (33P-ATP, P81 filter-binding), LATS1. The note with it: Table 28, biochemical kinase assay; read-out: LATS1 IC50. The essentials:
(§1)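 Radiometric 33P-ATP kinase reaction in 20 mM Hepes pH 7.5, 10 mM MgCl2, 1 mM EGTA, 0.01% Brij35, 0.02 mg/ml BSA, 0.1 mM Na3VO4, 2 mM DTT, 1% DMSO. Compound preincubated with kinase and substrate 20 min, then 2 h at room temperature; P81 filter-binding read-out. IC50 (nM) from 10-point singlet curves.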

Test [2] deals with T2, LATS2 (Homo sapiens, UniProt Q9NRM7).
T2 sequence (Q9NRM7 1-1088): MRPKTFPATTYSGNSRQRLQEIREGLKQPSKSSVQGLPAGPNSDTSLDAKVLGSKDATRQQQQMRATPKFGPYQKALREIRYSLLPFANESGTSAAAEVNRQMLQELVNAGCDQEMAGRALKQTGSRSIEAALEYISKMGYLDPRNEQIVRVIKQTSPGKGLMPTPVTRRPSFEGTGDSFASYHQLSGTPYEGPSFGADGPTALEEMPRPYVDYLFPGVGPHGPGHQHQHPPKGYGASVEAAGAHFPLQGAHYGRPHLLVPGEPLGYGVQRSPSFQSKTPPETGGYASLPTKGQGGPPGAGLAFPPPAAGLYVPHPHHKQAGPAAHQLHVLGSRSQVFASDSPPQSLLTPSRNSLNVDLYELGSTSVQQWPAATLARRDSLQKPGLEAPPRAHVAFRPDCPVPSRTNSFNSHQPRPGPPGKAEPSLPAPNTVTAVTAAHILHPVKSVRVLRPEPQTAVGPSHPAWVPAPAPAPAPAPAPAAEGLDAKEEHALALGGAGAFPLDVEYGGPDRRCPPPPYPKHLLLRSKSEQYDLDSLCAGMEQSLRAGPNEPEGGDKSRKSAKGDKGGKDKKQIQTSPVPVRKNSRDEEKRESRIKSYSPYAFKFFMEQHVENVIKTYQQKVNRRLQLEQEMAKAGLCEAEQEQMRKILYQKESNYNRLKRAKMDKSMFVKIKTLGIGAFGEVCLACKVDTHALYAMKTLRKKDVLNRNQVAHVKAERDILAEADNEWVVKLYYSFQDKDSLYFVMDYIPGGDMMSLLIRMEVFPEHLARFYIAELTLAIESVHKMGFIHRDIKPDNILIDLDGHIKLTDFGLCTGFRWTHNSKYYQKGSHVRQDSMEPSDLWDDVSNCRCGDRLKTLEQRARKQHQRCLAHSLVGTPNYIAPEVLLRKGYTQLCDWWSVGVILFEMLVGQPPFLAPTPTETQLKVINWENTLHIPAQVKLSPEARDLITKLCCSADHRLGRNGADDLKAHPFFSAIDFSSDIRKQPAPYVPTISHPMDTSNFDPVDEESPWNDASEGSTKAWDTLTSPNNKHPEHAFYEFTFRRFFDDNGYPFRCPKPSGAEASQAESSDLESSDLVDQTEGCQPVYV
Description: RBC HotSpot kinase assay (33P-ATP, P81 filter-binding), LATS2. The note with it: Table 28, biochemical kinase assay; read-out: LATS2 IC50. Summed up:
as §1

Test [3] has as its target AKT (Homo sapiens, UniProt P31749). In words: RBC HotSpot kinase assay (33P-ATP, P81 filter-binding), AKT. The note with it: Table 28, biochemical kinase assay; read-out: AKT IC50. The essentials: as §1

Usually IC50 stands for the concentration that gives 50% inhibition.

Chain of AKT (P31749 whole entry): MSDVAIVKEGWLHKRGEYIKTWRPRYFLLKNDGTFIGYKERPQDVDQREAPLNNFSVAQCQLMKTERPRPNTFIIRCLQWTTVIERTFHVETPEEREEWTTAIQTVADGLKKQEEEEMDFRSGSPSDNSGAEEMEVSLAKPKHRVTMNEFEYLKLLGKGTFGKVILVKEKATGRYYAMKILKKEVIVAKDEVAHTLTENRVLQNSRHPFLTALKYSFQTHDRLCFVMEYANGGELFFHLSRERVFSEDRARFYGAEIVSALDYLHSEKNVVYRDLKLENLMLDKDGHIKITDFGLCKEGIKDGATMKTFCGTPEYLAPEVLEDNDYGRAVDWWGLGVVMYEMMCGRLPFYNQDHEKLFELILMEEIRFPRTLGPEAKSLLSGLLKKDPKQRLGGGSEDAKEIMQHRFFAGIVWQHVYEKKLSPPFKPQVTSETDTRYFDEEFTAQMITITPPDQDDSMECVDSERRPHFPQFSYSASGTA

With `CC(C)(N)c1ccc(-c2ccnc3[nH]ccc23)cc1Cl` [Compound 205, 2-(2-chloro-4-(1H-pyrrolo[2,3-b]pyridin-4-yl)phenyl)propan-2-amine], the concentration for half-maximal inhibition (IC50) in test [1] is 9.5 nM; in test [2] it was 31.8 nM; in test [3] it was 437 nM.

On to `CC(C)(N)c1ccc(-c2ccnc3[nH]ccc23)cc1-c1ccccc1` [Compound 206, 2-(5-(1H-pyrrolo[2,3-b]pyridin-4-yl)-[1,1′-biphenyl]-2-yl)propan-2-amine], for which the IC50 in test [1] came out at 10.2 nM; in test [2] it was 74.9 nM; in test [3], 1620 nM.

As to `CC(C)(N)c1ccc(-c2ccnc3[nH]cc(Br)c23)cc1-c1ccccc1` [Compound 207, 2-(5-(3-bromo-1H-pyrrolo[2,3-b]pyridin-4-yl)-[1,1′-biphenyl]-2-yl)propan-2-amine], the figures for the concentration for half-maximal inhibition (IC50) in test [1], in test [2] and in test [3] were 4 nM, 9.6 nM and 267 nM, respectively.

As for `CN(C)C(C)(C)c1ccc(-c2ccnc3[nH]cc(F)c23)cc1` [Compound 208, 2-(4-(3-fluoro-1H-pyrrolo[2,3-b]pyridin-4-yl)phenyl)-N,N-dimethylpropan-2-amine], the half-inhibitory concentration (IC50) in test [1] was 8.3 nM; in test [2] it was 15 nM; in test [3] it was 349 nM.

As to `CN(C)C(C)(C)c1ccc(-c2ccnc3[nH]ccc23)cc1` [Compound 209, 2-(4-(1H-pyrrolo[2,3-b]pyridin-4-yl)phenyl)-N,N-dimethylpropan-2-amine], the concentration for half-maximal inhibition (IC50) in test [1] was 43 nM; in test [2] it was 146 nM; in test [3] it was 1250 nM.

Regarding `CC(C)(N)c1ccc(-c2ccnc3[nH]cc(Br)c23)cc1` [Compound 210, 2-(4-(3-bromo-1H-pyrrolo[2,3-b]pyridin-4-yl)phenyl)propan-2-amine], the half-maximal inhibitory concentration (IC50) in test [1] is 24 nM; in test [2], 4.7 nM; in test [3], 331 nM.

In the case of `COC(=O)c1c[nH]c2nccc(-c3ccc(C(C)(C)N)cc3)c12` [Compound 212, methyl 4-(4-(2-aminopropan-2-yl)phenyl)-1H-pyrrolo[2,3-b]pyridine-3-carboxylate], the concentration for half-maximal inhibition (IC50) in test [1] was determined as 12 nM; in test [2], 13 nM; in test [3], 1250 nM.

Turning to `COC(=O)c1c[nH]c2nccc(-c3ccc(CN)c(C)c3)c12` [Compound 213, methyl 4-(4-(aminomethyl)-3-methylphenyl)-1H-pyrrolo[2,3-b]pyridine-3-carboxylate], the IC50 in test [1] worked out at 7.7 nM; in test [2], 14.7 nM; in test [3], 832 nM.

For `COC(=O)c1c[nH]c2nccc(-c3ccc(CN)c(-c4ccccc4)c3)c12` [Compound 214, methyl 4-(6-(aminomethyl)-[1,1′-biphenyl]-3-yl)-1H-pyrrolo[2,3-b]pyridine-3-carboxylate], the IC50 was 11 nM in test [1], 24 nM in test [2] and 986 nM in test [3].

`Cc1cc(-c2ccnc3[nH]cc(F)c23)ncc1CN` [Compound 215, (6-(3-fluoro-1H-pyrrolo[2,3-b]pyridin-4-yl)-4-methylpyridin-3-yl)methanamine]: the IC50 in test [1] is 4.7 nM; in test [2], 15 nM; in test [3], 2840 nM.

`COC(=O)c1c[nH]c2nccc(-c3ccc(CN)c(Cl)c3)c12` [Compound 216, methyl 4-(4-(aminomethyl)-3-chlorophenyl)-1H-pyrrolo[2,3-b]pyridine-3-carboxylate]: the IC50 in test [1] worked out at 11 nM; in test [2], 19 nM; in test [3], 823 nM.

In the case of `Cc1cc(-c2ccnc3[nH]ccc23)ncc1CN` [Compound 217, (4-methyl-6-(1H-pyrrolo[2,3-b]pyridin-4-yl)pyridin-3-yl)methanamine], the IC50 came to 8.2 nM in test [1], 12 nM in test [2] and 3160 nM in test [3].

`NCc1ccc(-c2ccnc3[nH]ccc23)nc1` [Compound 218, (6-(1H-pyrrolo[2,3-b]pyridin-4-yl)pyridin-3-yl)methanamine]: the IC50 in test [1] was 37 nM; in test [2], 130 nM; in test [3], 4930 nM.

In the case of `CC(C)c1c[nH]c2nccc(-c3ccc(CN)c(-c4ccccc4)c3)c12` [Compound 220, (5-(3-isopropyl-1H-pyrrolo[2,3-b]pyridin-4-yl)-[1,1′-biphenyl]-2-yl)methanamine], the 50% inhibitory concentration (IC50) in test [1] came to 236 nM; in test [2], 115 nM; in test [3] it was 1010 nM.

In the case of `Cc1cc(-c2ccnc3[nH]cc(F)c23)cc(C)c1CN` [Compound 222, (4-(3-fluoro-1H-pyrrolo[2,3-b]pyridin-4-yl)-2,6-dimethylphenyl) methanamine], the IC50 in test [1] is 16 nM; in test [2], 31 nM; in test [3], 470 nM.

For the compound `C=C(C)c1c[nH]c2nccc(-c3ccc(CN)c(-c4ccccc4)c3)c12` [Compound 224, (5-(3-(prop-1-en-2-yl)-1H-pyrrolo[2,3-b]pyridin-4-yl)-[1,1′-biphenyl]-2-yl)methanamine], the IC50 is 73 nM in test [1], 35 nM in test [2] and 1150 nM in test [3].

For `NCc1ccc(-c2cc(N)nc3[nH]ccc23)cc1` [Compound 225, 4-(4-(aminomethyl)phenyl)-1H-pyrrolo[2,3-b]pyridin-6-amine], the IC50 in test [1] is ≥ 10000 nM; in test [2], 6420 nM; in test [3], > 10000 nM.

Consider `CC(C)(N)c1ccc(-c2ccnc3[nH]ccc23)cc1` [Compound 226, 2-(4-(1H-pyrrolo[2,3-b]pyridin-4-yl)phenyl)propan-2-amine], for which the IC50 was found to be 25.4 nM in test [1], 1.2 nM in test [2] and 734 nM in test [3].

For the compound `NCc1ccc(-c2ccnc3[nH]cc(-c4cccc(C(F)(F)F)c4)c23)cc1` [Compound 227, (4-(3-(3-(trifluoromethyl)phenyl)-1H-pyrrolo[2,3-b]pyridin-4-yl)phenyl) methanamine], the IC50 was 124 nM in test [1], 49.3 nM in test [2] and 3670 nM in test [3].

For `NCc1ccc(-c2ccnc3[nH]cc(-c4cccc(Cl)c4)c23)cc1` [Compound 228, (4-(3-(3-chlorophenyl)-1H-pyrrolo[2,3-b]pyridin-4-yl)phenyl) methanamine], the half-maximal inhibitory concentration (IC50) in test [1] worked out at 34 nM; in test [2], 14 nM; in test [3], 1020 nM.
